Measurements from ChEMBL document CHEMBL5335779, “The research progress of SARS-CoV-2 main protease inhibitors from 2020 to 2022” (Eur J Med Chem, 2023).
pEC50, pIC50, pKi: −log10 of the molar value.

Tests used:
[1] = system: SARS-CoV-2; type: functional, organism-based; details: Severe acute respiratory syndrome coronavirus 2, Vero C1008
[2] = target: T1, Replicase polyprotein 1ab (Severe acute respiratory syndrome coronavirus 2, UniProt P0DTD1); assay: Inhibition of N-terminal GST-tagged SARS-CoV-2 Main protease expressed in Escherichia coli BL21 (DE3) incubated for 10 mins by FRET analysis
[3] = target: T1, Replicase polyprotein 1ab; assay: Inhibition of N-terminal 6His-tagges SARS-CoV-2 PLpro Wuhan (1524 to 1883 residues) expressed in Escherichia coli BL21(DE3) using Arg-Leu-Arg-Gly-Gly-AMC as substrate preincubated for 5 mins followed by substrate addition measured after 6 mins by fluorescence based assay
[4] = Clearance in CD1 mouse at 5 mg/kg, ip; type: ADME, organism-based; details: in vivo
[5] = target: T1, Replicase polyprotein 1ab; assay: Binding affinity to SARS-CoV-2 Main protease assessed as inhibition constant
[6] = system: SARS-CoV-2; assay: Antiviral activity against SARS-CoV-2 USA-WA1/2020 infected in Vero E6 cells assessed as reduction in viral replication incubated for 3 days by viral plaque assay; type: functional, organism-based; details: Severe acute respiratory syndrome coronavirus 2, USA-WA1/2020, Vero C1008, 72 h
[7] = target: T1, Replicase polyprotein 1ab; assay: Inhibition of His-tagged SARS-CoV-2 Main protease BetaCoV/Wuhan/WIV04/2019 expressed in Escherichia coli BL21 (DE3) using Dabcyl-KTSAVLQ/SGFRKME(Edan) as substrate followed by compound addition by FRET assay
[8] = target: T1, Replicase polyprotein 1ab; assay: Inhibition of GST-tagged SARS-CoV-2 Main protease expressed in Escherichia coli BL21 using Dabcyl-Val-Asn-Ser-Thr-Leu-Gln-Ser-Gly-Leu-Arg-Lys-EDANS as fluorogenic substrate preincubated for 10 mins followed by substrate addition and measured after 1 hrs by FRET assay
[9] = target: T1, Replicase polyprotein 1ab; assay: Inhibition of N-terminal GST-tagged SARS-CoV-2 Main protease expressed in Escherichia coli BL21 (DE3) using DABCYL-KTSAVLQSGFRKME-EDANS as fluorogenic substrate preincubated for 10 mins followed by compound addition and measured after 1 hr by FRET assay
[10] = target: T1, Replicase polyprotein 1ab; assay: Inhibition of full length GST-tagged SARS-CoV-2 Main protease expressed in Escherichia coli
[11] = target: T1, Replicase polyprotein 1ab; assay: Binding affinity to SARS-CoV-2 Main protease expressed in Escherichia coli BL21 (DE3) assessed as inhibition constant
[12] = system: SARS-CoV-2; assay: Antiviral activity against SARS-CoV-2 infected in human Calu-3 cells assessed as reduction in viral growth; type: functional, organism-based; details: Severe acute respiratory syndrome coronavirus 2, Calu-3
[13] = target: Replicase polyprotein 1ab (Severe acute respiratory syndrome-related coronavirus, UniProt P0C6X7); assay: Inhibition of recombinant SARS-CoV-1 Main protease
[14] = Inhibition of MERS-CoV Main protease; design: species or system Middle East respiratory syndrome-related coronavirus
[15] = system: SARS-CoV-2; type: functional, organism-based; details: Severe acute respiratory syndrome coronavirus 2, Vero C1008, 64 h
[16] = system: SARS-CoV-2; assay: Antiviral activity against SARS-CoV-2 WA1 infected in human A549-hACE2-TMPRSS2 cells assessed as reduction in viral replication; type: functional, organism-based; details: Severe acute respiratory syndrome coronavirus 2, WA1, A549-hACE2-TMPRSS2
[17] = system: SARS-CoV-2; type: functional, organism-based; details: Severe acute respiratory syndrome coronavirus 2, Vero C1008; remark: listed apart in the source
[18] = system: Human coronavirus 229E; assay: Antiviral activity against HCoV-229E infected in human Huh-7 cells assessed as reduction in viral replication; type: functional, organism-based
[19] = Oral bioavailability in Sprague-Dawley rat at 20 mg/kg by LC-MS/MS analysis; type: ADME, organism-based; details: in vivo
[20] = Half life in Sprague-Dawley rat at 20 mg/kg, ip by LC-MS/MS analysis; type: ADME, organism-based; details: in vivo
[21] = Clearance in Sprague-Dawley rat at 20 mg/kg, ip by LC-MS/MS analysis; type: ADME, organism-based; details: in vivo
[22] = target: T1, Replicase polyprotein 1ab; assay: Binding affinity to N-terminal full length SARS-CoV-2 Main protease assessed as inhibition constant
[23] = Binding affinity to MERS-CoV MPro assessed as inhibition constant; design: species or system Middle East respiratory syndrome-related coronavirus
[24] = system: Middle East respiratory syndrome-related coronavirus; assay: Antiviral activity against MERS-CoV infected in Vero E6 cells assessed as reduction in viral replication measured after 48 hrs by qRT-PCR assay; type: functional, organism-based; details: Vero C1008, 48 h

For `Cn1sc(=O)n(Cc2ccccc2)c1=O`, the pIC50 [1] was 6.17.
`O=C(Oc1cncc(Cl)c1)c1cccs1` gave a pIC50 [2] of 7.10.
Molecule `C[C@H](NC(=O)OCc1ccccc1)C(=O)N[C@@H](C)C(=O)NN(CC(N)=O)C(=O)/C=C/C(=O)c1ccccc1` has a pIC50 [3] of 6.31.
`O=C[C@H](C[C@@H]1CCNC1=O)NC(=O)[C@H](CC1CCCCC1)NC(=O)c1cc2ccccc2[nH]1` gave a CL/F [4] of 17.4 mL/min/kg.
`C=CCn1ccc2c(C(=O)Oc3cncc(Cl)c3)cccc21` gave a pKi [5] of 7.14.
For `O=C(N[C@@H](CC1CC1)C(=O)N[C@@H](C[C@@H]1CCNC1=O)C(O)S(=O)(=O)O)OCCc1cccc(Cl)c1` (some centres undefined), the pEC50 [6] was 6.15.
For `O=C(N[C@@H](CC1CC1)C(=O)N[C@@H](C[C@@H]1CCNC1=O)C(O)S(=O)(=O)O)OCc1cccc(F)c1` (some centres undefined), the pIC50 [7] was 7.15 and the pEC50 [6] was 6.24.
In the case of `COc1cccc(-n2[se]c3ccccc3c2=O)c1`, the pIC50 [8] was 5.39.
`CC(C)(C)c1ccc(N(C(=O)CCl)C(C(=O)NC2CCCCC2)c2cccnc2)cc1` (centres undefined) showed a pIC50 [9] of 6.39.
Molecule `O=C[C@H](C[C@@H]1CCNC1=O)NC(=O)[C@H](Cc1ccccc1)NC(=O)c1cc2ccccc2[nH]1` has a pIC50 [10] of 7.52.
`C=CS(=O)(=O)N(c1ccc(C(C)(C)C)cc1)C(C(=O)NC1CCCCC1)c1cccnc1` (centres undefined) showed a pIC50 [9] of 6.38.
`Cc1c(Cl)cc(N2CCN(C(=O)c3cc(=O)[nH]c(=O)[nH]3)CC2)cc1Cl` showed a pKi [11] of 5.85.
`O=c1c2ccccc2[se]n1-c1cccc(C(F)(F)F)c1` showed a pEC50 [12] of 6.08.
`O=C(Sc1ncccn1)c1cc2ccccc2[nH]1` showed a pIC50 [13] of 7.21 and a pIC50 [14] of 6.52.
`C[C@H](NC(=O)[C@@H](c1cccnc1)N(C(=O)C(Cl)Cl)c1ccc(-c2ccccc2)cc1)c1ccccc1` gave a pEC50 [15] of 6.05 and a pEC50 [16] of 5.69.
`O=C(NCc1cccs1)[C@@H]1CN(C(=O)c2cccnc2)CCN1c1ccc(Cl)c(Cl)c1` gave a pEC50 [17] of 5.96.
Molecule `CC(C)(C)[C@H](NC(=O)C(F)(F)F)C(=O)N1C[C@H]2[C@@H]([C@H]1C(=O)N[C@@H](C[C@@H]1CCNC1=O)C(=O)CO)C2(C)C` has a pIC50 [18] of 7.89.
Work on `CC(C)(C)[C@H](NC(=O)C(F)(F)F)C(=O)N1C[C@H]2[C@@H]([C@H]1C(=O)N[C@@H](C[C@@H]1CCNC1=O)C(=O)c1nc3ccccc3s1)C2(C)C` yielded a pIC50 [18] of 7.62.
Molecule `CC(C)C[C@H](NC(=O)[C@@H](NC(=O)c1ccc(Cl)cc1)C(C)C)C(=O)N[C@H](C=O)C[C@@H]1CCCNC1=O` has a pIC50 [10] of 6.85.
Work on `CC1(C)[C@@H]2[C@@H](C(=O)N[C@H](C=O)C[C@@H]3CCNC3=O)N(C(=O)COc3ccc(OC(F)(F)F)cc3)C[C@@H]21` yielded a bioavailability [19] of 78%, a half-life [20] of 4.53 h and a CL/F [21] of 22.7 mL/min/kg.
Work on `C[C@H](NC(=O)[C@@H](c1cccnc1)N(C(=O)c1ccco1)c1ccc(-c2ccccc2)cc1)c1ccccc1` yielded a pKi [22] of 4.00.
With `O=C(NCc1cccs1)[C@@H]1CN(C(=O)CCl)CCN1c1ccc(Cl)c(Cl)c1` the pKi [23] was 6.74 and the pEC50 [24] was 5.58.
`Nc1cccn([C@@H](CC2CC2)C(=O)N[C@@H](C[C@@H]2CCNC2=O)C(=O)C(=O)NCc2ccccc2)c1=O` gave a pIC50 [13] of 5.40.
